Columns and labels:
[1] = system: SW962 vulvar carcinoma cultures; assay: Annexin-V-Fluos apoptosis assay (flow cytometry); type: cell-based; details: 10 μM; same concentration range as 4-HPR
Description: SW962 vulvar carcinoma cultures were treated with 10 μM of the indicated retinoid or the same volume of solvent. At the specified times, the cultures were labeled with Annexin-V-Fluos and propidium iodide (PI), and the number of apoptotic cells was quantified using dual-laser flow cytometric analysis.

[2] = system: Thymidine Phosphorylase (TP); assay: Real time rt-PCR and Western blot validation, TP; type: cell-based; details: 1 μM (rt-PCR, OVCAR-3) and 10 μM (Western blot, A2780)
Description: FIG. 13. Real Time rt-PCR validation of SHetA2 inhibition of TP and TSP-1 mRNA Expression. OVCAR-3 cultures were treated with 1 μM SHetA2 for the indicated period of time prior to harvesting the cells and isolating RNA. cDNA was prepared and used in real time rt-PCR reactions. Real time rt-PCR was performed on CDNA from cultures various treatment times.
FIG. 14. Western blot validation of SHetA2 inhibition of TP and TSP4 protein expression. A2780 ovarian cancer cells were treated with 10 μM SHetA2 for the indicated amounts of time. Equal amounts of whole cell protein extracts were evaluated by Western blot.

OVCAR-3 xenograft tumors = assay: Histochemical and immunohistochemical evaluation of xenograft tumors (glands, MUC-1, TUNEL); type: in vivo, mouse; details: 10 mg/kg/day by gavage; end of treatment; versus control
Description: On the last day of treatment, the animals were sacrificed and then the tumors were removed, fixed in neutral buffered formalin and embedded in paraffin. Five micron sections of the paraffin-embedded tumors were stained with hematoxylin and eosin (H&E) for histologic evaluation, and with the TUNEL (terminal deoxynucleodidyl transferase-mediated biotin-deoxyuridine triphosphate nick) FragEL kit (Oncogene Research Products, Boston, Mass.) for evaluation of apoptosis according to manufacturers instructions. MUC-1 expression was detected in tumor sections using a mouse monoclonal antibody to human MUC-1 (Pharmingen, San Diego, Calif.) and the Histostain-Plus AEC Kit (Zymed Laboratories, San Francisco, Calif.) according to manufacturers instructions. Briefly, endogenous peroxidase activity in deparaffinized sections was quenched with 3% H2O2 in methanol and then sections were incubated in serum blocking solution, and subsequently in primary antibody, diluted 1:50 in phosphate buffered saline (PBS), overnight at 4° C. in a humid chamber. Sections were then washed with PBS, treated with biotinylated secondary antibody for 15 minutes, followed by enzyme conjugate for 10 minutes. […] Tumor sections were scored for number of glands (quantified in one H&E stained sections and 3 MUC-1-stained sections) and MUC-1 and TUNEL staining (based on staining intensity and percent positive cells). […]

[3] = system: C6 glioma cells injected into the brains of rats; assay: Rat glioma (brain cancer) model, MRI; type: in vivo; details: Monday, Wednesday and Friday
Description: FIG. 9. SHetA2 inhibition of Angiogenesis. C6 glioma cells were injected into the brains of 2 rats. One week later, one rat was gavaged with 60 mg/kg/day SHetA2 on each Monday, Wednesday and Friday. Blood vessels were imaged by MRI.
FIG. 10. […] C6 glioma cells were injected into the brains of 2 rats. One week later, one rat was gavaged with 60 mg/kg/day SHetA2 on each Monday, Wednesday and Friday. The blood flow was measured by MRI imaging.
FIG. 11. SHetA2 inhibition of glioma tumor growth. C6 glioma cells were injected into the brains of 2 rats. One week later, one rat was gavaged with 60 mg/kg/day SHetA2 on each Monday, Wednesday and Friday. The tumor size was measured by MRI imaging.
In this in vivo model, glioma cells are injected into the brains of rats and the growth of the tumor and development of blood vessels in the tumor is measured by magnetic resonance imaging (MRI).

[4] = system: EAhy.926 endothelial cells; assay: Growth/viability of endothelial cells versus ovarian cancer cell lines; type: cell-based; details: SHetA2 for 24 hours
Description: The graph on the left provides quantification of the endothelial branches for each treatment dose.
The increased thickness of the vessels at 1 μM and the increasing proportions of solitary clumps of cells at 5 and 10 μM indicate that SHetA2 is inhibiting endothelial cell migration. To determine if this anti-angiogenic activity was due to growth inhibition or cytotoxicity. The viability of the endothelial cells treated with SHetA2 for 24 hours was evaluated. […] This confirms the therapeutic ratio observed in previous studies.

[5] = system: A2780 ovarian xenograft tumors; assay: A2780 ovarian xenograft tumor model; type: in vivo, mouse; details: oral 60 mg/kg/day
Description: FIG. 12. Various Xenograft tumors stained with CD34 antibodies (brown) to identify endothelium. The B16 mouse melanoma cell line was established as a syngeneic tumor in an immunocompetent mouse model and the human Caki renal cancer and A2780 ovarian xenograft tumors in immunocompromised mice. The treated mice were gavaged with 60 mg/kg/day SHetA2 and the untreated were gavaged with solvent only. The tumors were excised and sections were stained with the anti-CD34 antibody to detect endothelial cells (brown stain).
Survival was the primary endpoint of those studies. […] Tumor growth was the primary endpoint of the renal cancer study.

NF-κB = NF-κB luciferase reporter assay in A2780 cultures; type: cell-based; details: 10 μM SHetA2, inhibition increased over 4 hours
Description: FIG. 15. SHetA2 Inhibition of NF-κB. A2780 cultures were transfected with the NF-κB reporter and treated with 10 μM SHetA2 for the indicated times. Cell lysates were prepared and evaluated for luciferase activity which was normalized for protein concentration.
Because both TP and TSP4 have DNA binding sites for the NFκB transcription factor in their promoter, the ability of SHetA2 to inhibit activity of NF-κB in ovarian cancer cultures was tested using a luciferase reporter plasmid driven by NF-κB sites in the promoter. […] Inhibition increased over the 4 hour evaluation time (FIG. 15).

[6] = system: blood vessel density in bFGF/VEGF-treated CAMs; assay: Chorioallantoic membrane (CAM) assay; type: in vivo, chick; details: 5 μM SHetA2; versus bFGF/VEGF-treated CAMs
Description: FIG. 8. Effect of 5 μM SHetA2 on blood vessel density in the CAM assay. The mean± SEM blood vessel density per treatment as compared to bFGF/VEGF-treated CAMs; *=p<0.05 and **=p<0.001 as compared to bFGF/VEGF-treated CAMs as determined by one-way ANOVA and Neuman-Keuls post-test.
The CAM assay that was used is based upon the original procedure by Jakob et al. (36) with modifications made by our laboratory (37, 38) (see FIG. 8).

[7] = oral 60 mg/kg/day, versus untreated control

CC1(C)CC(C)(C)c2cc(NC(=S)Nc3ccc([N+](=O)[O-])cc3)ccc2S1 [SHetA2]
induction of apoptosis (Annexin-V-Flous assay) [1]: induced apoptosis | expression of TP at the RNA and protein levels [2]: inhibit expression | MUC-1 expression in xenograft tumors (OVCAR-3 xenograft tumors): increase staining for mucin-1 (MUC1) protein | gland formation (numbers of glands) in xenograft tumors (OVCAR-3 xenograft tumors): greatest degree of gland induction | blood flow (MRI) ([3]; gavage 60 mg/kg/day): inhibition of blood flow | angiogenesis of glioma tumors (MRI) [3, 7]: inhibited | growth of glioma tumors (MRI) [3, 7]: inhibited | growth inhibition of endothelial cells compared with A2780 and OVCAR-3 [4]: much less growth inhibited | survival ([5]; ovarian cancer model): improved survival | development of blood vessels inside tumors (anti-CD34 staining) ([5]; ovarian): inhibited the development of blood vessels | time to inhibition of NF-κB reporter activity (NF-κB): ≤ 30 min | angiogenesis (blood vessel density) in CAM assay [6]: inhibits angiogenesis
